# Read-outs that look alike come from different tables or passages of the source. Marks after values point to notes of the source that are not given here.
# Key:
# [1] = system: mice exposed to whole-body radiation; assay: Mouse survival after whole-body radiation (systemic radioprotection); assay type: in vivo; conditions: for Mouse % Survival: 8.63 Gy whole-body radiation
# Experimental: Exposure of a control mouse to the same dose of radiation in the absence of PrC-210 administration (e.g., a water-only control) is 100% lethal (FIG. 4, “IP Water”). Each treatment group contained 20 mice. The dose of PrC-210 was 252 μg/g body weight.
# In additional experiments, female ICR mice received 200 μl doses (e.g., 900 μg/g body weight) of PrC-210 dissolved in water by gavage at the indicated times prior to irradiation (See FIG. 6). At 0 min, mice were irradiated with 9.0 Gy of whole-body radiation in a CS^137 irradiator. Mice were returned to housing and their weights and survival were monitored for the next 60 days. There were six mice in each of the treatment groups.
# […] Survival rates greater than the 0% Survival seen in the vehicle control group were attributed to systemic radioprotection conferred by the systemically administered radioprotector molecule.
# [2] = system: mouse; assay: Systemic toxicity, maximum tolerated dose in mouse; assay type: in vivo; conditions: for Mouse IP MTD: intraperitoneal
# Experimental: (§1) During the development of embodiments of the technology provided herein, embodiments of compounds described herein and/or encompassed by the synthetic schemes were tested for systemic toxicity and radioprotection in mouse and rat models (Table 2). Toxic doses are shown as the “maximum tolerated dose” (“MTD”) for intraperitoneal (IP), oral, and subcutaneous (SC) administration routes in Table 2.
# (§2) Doses expressed as a fraction of “MTD” are expressed as a fraction of the “maximum tolerated dose”. Doses expressed in units of ug/g correspond to micrograms of the compound per gram of body weight.
# [3] = system: ferret; assay: Ferret retch/emesis model; assay type: in vivo
# [4] = system: mouse; conditions: intraperitoneal; published value; cited from earlier work
# [5] = system: rats exposed to whole-body radiation; assay: Rat survival after whole-body radiation (oral radioprotection); assay type: in vivo
# Experimental: Female Sprague-Dawley rats received 200 μl doses of PrC-210 dissolved in water by gavage a time of 60 minutes prior to irradiation (time=−60 min). […] Rats were returned to housing and their weights and survival were monitored for the next 60 days. There were six rats in each of the treatment groups. As shown by FIG. 5, oral PrC-210 confers 100% protection against an otherwise 100% lethal dose of whole-body radiation.
# [6] = system: radiation dermatitis in rat skin; assay: Rat radiation dermatitis assay with topical application before irradiation; assay type: in vivo; conditions: topical in ethanol/water vehicle four times in the 2 h before 17.33 Gy; scored 13 days later
# Experimental: To determine if PrC-210 could function as a topical radioprotector that could prevent radiation dermatitis when applied prior to a cancer patient's daily radiotherapy, a rat assay that realistically mimics human radiation dermatitis was created. This assay quantifies the severity of radiation dermatitis in rat skin 13 days after a single radiation dose of 17.33 Gy. In this study, PrC-210 was applied to rat skin in an ethanol/water delivery vehicle four times in the 2 h before irradiation, and control rats received only topical vehicle before irradiation (FIG. 2). Additional drug/irradiation groups of three rats each received either the alkyl-thiol moiety or the alkyldiamine moiety from PrC-210 in the same delivery vehicle. Following the 17.33 Gy irradiation of a […] patch of dorsal skin on the rats' backs, rats were scored 13 days later.
# Molecules were applied to skin in an alcohol/water delivery vehicle prior to receiving a 17.33 Gy radiation dose to the 1.5 cm×3.0 cm skin site. Radiation dermatitis severity (e.g., % of the site covered by scab material) was scored 13 days following irradiation.
# [7] = system: rat; assay: Rat aortic blood pressure monitoring (hypotension side effect); assay type: in vivo; conditions: anesthetized rats, intraperitoneal injection
# Experimental: Blood pressure was monitored in the aortic artery of rats using a high-fidelity pressure transducer. Rats were continually anesthetized with 2% isofluorane, and drug doses were administered by intraperitoneal injection. Rats received intraperitoneal saline injections until these injections induced no change in monitored blood pressure. Indicated doses of PrC-210 or amifostine (FIG. 8) were administered and changes in blood pressure and heart rate were recorded. A condensed summary of drug-induced changes for all cannulated rats is shown in panel C. Doses of epinephrine (Epi; hypertensive) were also recurrently admininesterod to test if previous PrC-210 or amifostine doses could be modified.
# [8] = system: rat; assay: Systemic toxicity, maximum tolerated dose in rat; assay type: in vivo
# Experimental: as §1, §2
# [9] = Biodistribution of intravenous bolus of 14C PrC-210 in rat; assay type: in vivo
# Experimental: During the development of embodiments of the technology provided herein, experiments were conducted to test the biodistribution of an intravenous bolus dose of radiolabeled (e.g., ^14C) PrC-210 in a rat host. In these experiments, an intravenous bolus of 100 μCi of ^14C PrC-210 was administered into an indwelling catheter in a 300 g rat.
structure (smiles),measurement,setting,value
"NCCCNCCSP(=O)(O)O [Amifostine, amifostine, reference compound]",Mouse % Survival,[1]; at IP 0.5 MTD: 400 ug/g,88%
same,Mouse IP MTD,[2],760^d μg/g b.w.
same,retch/emesis responses,[3]; in vivo,caused retch/emesis responses in each of the four ferrets tested
same,Mouse IP MTD,[4],800^c μg/g b.w.
CN(C)C(=O)C(CCN1CCC(O)(c2ccc(Cl)cc2)CC1)(c1ccccc1)c1ccccc1 [Loperamide],retch/emesis responses,"[3]; ferret equivalent of highest human dose, loperamide as positive control 14 days later",robust retch/emesis response in each of the 14 ferrets
CNCC(CNC)CSSCC(CNC)CNC [PrC-210 Disulfide],Mouse % Survival,[1]; at IP 0.5 MTD: 78 ug/g,<5%
same,Mouse % Survival,[1]; at IP 0.9 MTD: 140 ug/g,37%
same,Mouse IP MTD,[2],155 μg/g b.w.
"CNCC(CS)CNC [PrC-210, 3-(methyl-amino)-2-((methylamino)methyl)propane-1-thiol]",Rat % Survival,"[5]; at ORAL 0.5 MTD: 900 ug/g, 9.5 Gy whole-body radiation",100% (at ORAL 0.5 MTD: 900 ug/g)
same,protection against otherwise 100% lethal whole-body radiation,"[5]; female Sprague-Dawley rats, oral gavage 60 minutes prior, monitored 60 days",100%
same,prevention of radiation dermatitis,[6],completely prevent radiation dermatitis
same,hypotension side effects,[7],does not cause hypotension side effects
same,Mouse % Survival,[1]; at IP 0.5 MTD: 211 ug/g,98%
same,Mouse % Survival,[1]; at IP 0.5 MTD: 252 ug/g,100%
same,Mouse % Survival,[1]; at ORAL 0.87 MTD: 1550 ug/g (only dose tested),100%
same,protection against otherwise 100% lethal whole-body radiation,"[1]; female ICR mice, oral 900 μg/g body weight, 60 minutes before 9.0 Gy",100%
same,survival,"[1]; mouse, IP 252 μg/g body weight, 30 minutes before 8.75 Gy whole-body radiation",100%
same,Rat IP MTD,[8]; intraperitoneal,485 μg/g b.w.
same,Rat ORAL MTD,[8]; oral,1974 μg/g b.w.
same,Recovery (carcass),[9]; 100 uCi IV,6.89%
same,Cmax,[9]; 100 uCi IV 14C PrC-210,"21,400 ng-eq/g"
same,Tmax,[9]; 100 uCi IV 14C PrC-210,30 min
same,Recovery2 (systemic),"[9]; 100 uCi IV, excreta + carcass",81.23%
same,Recovery3 (total),"[9]; 100 uCi IV, systemic + skin + cage wash + cage wipe + enclosure",84.20%
same,Recovery1 (excreta),"[9]; 100 uCi IV, urine + urine wipes + feces",74.34%
same,administered radioactivity eliminated via feces,[9]; intravenous 14C PrC-210,approximately 10%
same,administered radioactivity eliminated via urine,[9]; intravenous 14C PrC-210,approximately 50%
same,Mouse IP MTD,[2]; determined using best fit analysis of survival data,422^b μg/g b.w.
same,Mouse IP MTD,[2]; determined using probit analysis of survival data,504^a μg/g b.w.
same,Mouse ORAL MTD,[2]; oral,1780 μg/g b.w.
same,Mouse SC MTD,[2]; subcutaneous,431 μg/g b.w.
same,retch/emesis responses,[3]; in vivo,zero retching or emesis responses
NCC(CN)CS [PrC-211],Mouse % Survival,[1]; at IP 0.25 MTD: 118 ug/g,37%
same,Mouse % Survival,[1]; at IP 0.5 MTD: 238 ug/g,47%
same,Mouse % Survival,[1]; at IP 0.9 MTD: 427 ug/g,100%
same,Mouse IP MTD,[2],475 μg/g b.w.

# From patent US9458100B2, “Synthesis and growth regulatory activity of a prototype member of a new family of aminothiol radioprotectors” (Wisconsin Alumni Research Foundation, priority 2012, dated 2016)
